According to patent US9028845B2, “Chimeric immunomodulatory compounds and methods of using the same-IV” (Dynavax Technologies Corporation, priority 2001, dated 2015):

Tested on: mouse splenocytes
Experiment: Mouse splenocyte cytokine secretion (IL-6, IL-12, IFN by ELISA)
Assay type: cell-based, BALB/c mice
Settings: 24 h
Experimental: Polynucleotides and chimeric compounds were tested for immunostimulatory activity on mouse splenocytes. Immunostimulation was assessed by measurement of cytokine secretion into the culture media. Cytokine levels in the culture supernatant were determined by enzyme-linked immunosorbent assay (ELISA) tests.
Cells were isolated and prepared using standard techniques. Spleens of 8 to 20 week-old BALB/c mice were harvested and the splenocytes isolated using standard teasing and treatment with ACK lysing buffer from BioWhittaker, Inc. Four spleens were pooled in this experiment. Isolated cells were washed in RPMI 1640 media supplemented with 2% heat-inactivated fetal calf serum (FCS), 50 μM 2-mercaptoethanol, 1% penicillin-streptomycin, and 2 mM L-glutamine and resuspended at approximately […] in 10% FCS/RPMI (RPMI 1640 media with 10% heat-inactivated FCS, 50 μM 2-mercaptoethanol, 1% penicillin-streptomycin, and 2 mM L-glutamine).
Cell cultures were set up in triplicate with approximately 7×10^5 cells/well in a 96-well flat microtiter plate in 100 μl 10% FCS/RPMI with the cells allowed to rest for at lest 1 hour after plating. The indicated test compounds were incubated (at the indicated concentrations) for 24 hours at 37° C. Cell supernatants were harvested and frozen at −80° C. Cytokine production by the cells was determined by ELISAs, as shown in 19.

Substance: 5′-TGACTGTGAACGTTCGAGATGA-3′ (SEQ ID NO: 2) [Compound P-6, reference compound]
- IFN (dose 0.1 μg/ml): 187
- IL-12 (dose 0.1 μg/ml): 1665
- IFN (dose 1.0 μg/ml): 2175
- IL-6 (dose 1.0 μg/ml): 5760
- IL-12 (dose 1.0 μg/ml): 4565
- IFN (dose 5.0 μg/ml): 2505
- IL-6 (dose 5.0 μg/ml): 9311
- IL-12 (dose 5.0 μg/ml): 5374
